Assays:
[1] = target: T1, Bromodomain-containing protein 9 (Homo sapiens) (UniProt Q9H8M2); assay: Binding affinity to His6-fused BRD9 (unknown origin) assessed as change in melting temperature at 100 uM incubated for 30 mins by thermal shift assay
T1 sequence (whole entry): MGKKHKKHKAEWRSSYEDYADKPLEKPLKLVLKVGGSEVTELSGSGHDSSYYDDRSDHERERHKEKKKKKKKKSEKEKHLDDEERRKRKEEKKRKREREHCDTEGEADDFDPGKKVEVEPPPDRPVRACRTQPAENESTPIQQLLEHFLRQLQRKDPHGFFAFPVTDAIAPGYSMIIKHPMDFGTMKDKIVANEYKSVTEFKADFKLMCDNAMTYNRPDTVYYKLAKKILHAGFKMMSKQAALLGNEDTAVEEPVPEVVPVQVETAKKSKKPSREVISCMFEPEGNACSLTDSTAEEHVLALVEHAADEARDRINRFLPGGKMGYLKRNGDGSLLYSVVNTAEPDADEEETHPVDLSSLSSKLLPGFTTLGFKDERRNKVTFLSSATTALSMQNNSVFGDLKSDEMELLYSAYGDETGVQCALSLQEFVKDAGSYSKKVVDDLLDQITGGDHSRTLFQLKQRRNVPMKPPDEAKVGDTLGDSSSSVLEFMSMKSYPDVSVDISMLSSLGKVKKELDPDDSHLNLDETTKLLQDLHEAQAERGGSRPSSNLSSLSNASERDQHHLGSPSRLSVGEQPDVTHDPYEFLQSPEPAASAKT

[2] = species: Homo sapiens; assay: Selectivity index, ratio of IC50 for BRD4 BD1 (unknown origin) to IC50 of BRD4 BD2 (unknown origin)
[3] = target: Bromodomain-containing protein 3 (Homo sapiens, UniProt Q15059); assay: Binding affinity to His6-fused BRD3 BD2 (unknown origin) assessed as change in melting temperature at 100 uM incubated for 30 mins by thermal shift assay
[4] = target: T2, Bromodomain-containing protein 2 (Homo sapiens, UniProt P25440); assay: Binding affinity to His6-fused BRD2 BD2 (unknown origin) assessed as change in melting temperature at 100 uM incubated for 30 mins by thermal shift assay
[5] = target: T2, Bromodomain-containing protein 2; assay: Binding affinity to His6-fused BRD2 BD1 (unknown origin) assessed as change in melting temperature at 100 uM incubated for 30 mins by thermal shift assay
[6] = target: T3, Bromodomain testis-specific protein (Homo sapiens, UniProt Q58F21); assay: Binding affinity to His6-fused BRDT BD1 (unknown origin) assessed as change in melting temperature at 100 uM incubated for 30 mins by thermal shift assay
[7] = target: Histone acetyltransferase KAT2B (Homo sapiens) (UniProt Q92831); assay: Binding affinity to PCAF (unknown origin) assessed as change in melting temperature at 100 uM incubated for 30 mins by thermal shift assay
[8] = target: T4, Transcription intermediary factor 1-alpha (Homo sapiens) (UniProt O15164); assay: Binding affinity to TRIM24 (unknown origin) assessed as change in melting temperature at 100 uM incubated for 30 mins by thermal shift assay
T4 sequence (whole entry): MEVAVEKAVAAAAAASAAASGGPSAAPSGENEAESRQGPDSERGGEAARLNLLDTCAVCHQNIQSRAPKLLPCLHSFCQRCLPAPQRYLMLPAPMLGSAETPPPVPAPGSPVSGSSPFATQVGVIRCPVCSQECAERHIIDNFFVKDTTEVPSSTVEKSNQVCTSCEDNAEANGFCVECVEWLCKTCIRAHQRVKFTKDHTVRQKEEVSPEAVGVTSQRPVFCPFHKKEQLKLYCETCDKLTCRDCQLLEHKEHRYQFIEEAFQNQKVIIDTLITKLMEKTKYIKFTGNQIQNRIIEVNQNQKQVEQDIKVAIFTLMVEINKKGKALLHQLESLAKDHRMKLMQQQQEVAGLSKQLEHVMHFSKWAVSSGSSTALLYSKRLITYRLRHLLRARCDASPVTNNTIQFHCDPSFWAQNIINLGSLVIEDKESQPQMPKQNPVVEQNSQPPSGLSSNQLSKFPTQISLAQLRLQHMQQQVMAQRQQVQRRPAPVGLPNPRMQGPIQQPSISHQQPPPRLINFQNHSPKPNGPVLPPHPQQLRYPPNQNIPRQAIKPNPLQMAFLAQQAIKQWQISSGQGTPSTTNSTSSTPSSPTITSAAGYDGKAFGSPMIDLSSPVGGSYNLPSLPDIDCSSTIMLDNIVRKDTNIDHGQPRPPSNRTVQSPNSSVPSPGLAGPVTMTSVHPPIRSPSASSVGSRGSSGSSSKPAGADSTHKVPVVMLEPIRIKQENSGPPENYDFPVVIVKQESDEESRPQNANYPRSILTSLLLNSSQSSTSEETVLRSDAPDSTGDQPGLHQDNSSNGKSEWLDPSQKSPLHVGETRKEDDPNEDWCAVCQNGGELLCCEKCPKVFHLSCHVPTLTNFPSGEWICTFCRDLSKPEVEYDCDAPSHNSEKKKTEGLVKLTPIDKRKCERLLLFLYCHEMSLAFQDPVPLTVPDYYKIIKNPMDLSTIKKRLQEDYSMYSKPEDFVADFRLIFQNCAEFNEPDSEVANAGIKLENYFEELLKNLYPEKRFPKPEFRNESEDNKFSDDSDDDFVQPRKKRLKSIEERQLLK

[9] = target: Transcription initiation factor TFIID subunit 1 (Homo sapiens) (UniProt P21675); assay: Binding affinity to TAF1 BD1(unknown origin) assessed as change in melting temperature at 100 uM incubated for 30 mins by thermal shift assay
[10] = target: T3, Bromodomain testis-specific protein; assay: Binding affinity to His6-fused BRDT BD2 (unknown origin) assessed as change in melting temperature at 100 uM incubated for 30 mins by thermal shift assay
[11] = target: SWI/SNF-related matrix-associated actin-dependent regulator of chromatin subfamily A member 2 (Homo sapiens) (UniProt P51531); assay: Binding affinity to SMARCA2A (unknown origin) assessed as change in melting temperature at 100 uM incubated for 30 mins by thermal shift assay
[12] = target: SWI/SNF-related matrix-associated actin-dependent regulator of chromatin subfamily A member 2 (Homo sapiens) (UniProt P51531); assay: Binding affinity to SMARCA2B (unknown origin) assessed as change in melting temperature at 100 uM incubated for 30 mins by thermal shift assay
[13] = target: PH-interacting protein (Homo sapiens) (UniProt Q8WWQ0); assay: Binding affinity to PHIP-2 (unknown origin) assessed as change in melting temperature at 100 uM incubated for 30 mins by thermal shift assay

Chain of Histone acetyltransferase KAT2B (Homo sapiens) (Q92831 whole entry, looked up): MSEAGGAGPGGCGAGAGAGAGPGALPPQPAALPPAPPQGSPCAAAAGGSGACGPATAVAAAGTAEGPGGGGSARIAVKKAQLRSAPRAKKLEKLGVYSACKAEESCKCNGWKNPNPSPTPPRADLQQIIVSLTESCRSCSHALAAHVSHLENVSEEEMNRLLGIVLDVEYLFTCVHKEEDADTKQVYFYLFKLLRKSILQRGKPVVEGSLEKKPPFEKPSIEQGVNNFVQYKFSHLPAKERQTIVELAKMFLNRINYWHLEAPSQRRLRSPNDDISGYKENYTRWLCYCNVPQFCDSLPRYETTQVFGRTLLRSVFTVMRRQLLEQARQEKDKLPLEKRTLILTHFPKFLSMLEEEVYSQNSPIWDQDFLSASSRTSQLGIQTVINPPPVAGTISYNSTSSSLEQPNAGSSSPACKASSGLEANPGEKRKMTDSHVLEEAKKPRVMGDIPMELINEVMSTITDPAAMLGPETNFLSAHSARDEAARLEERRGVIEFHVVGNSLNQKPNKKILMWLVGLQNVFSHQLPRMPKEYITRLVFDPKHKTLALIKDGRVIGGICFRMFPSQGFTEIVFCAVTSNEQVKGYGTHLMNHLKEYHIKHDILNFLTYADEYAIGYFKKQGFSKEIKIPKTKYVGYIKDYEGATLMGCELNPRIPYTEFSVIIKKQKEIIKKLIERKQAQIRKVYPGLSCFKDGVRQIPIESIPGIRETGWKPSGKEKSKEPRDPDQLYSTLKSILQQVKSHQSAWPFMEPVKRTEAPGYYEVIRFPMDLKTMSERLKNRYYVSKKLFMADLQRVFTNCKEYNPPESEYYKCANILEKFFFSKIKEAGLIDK
Chain of Bromodomain-containing protein 3 (Q15059 2-726 limits assumed): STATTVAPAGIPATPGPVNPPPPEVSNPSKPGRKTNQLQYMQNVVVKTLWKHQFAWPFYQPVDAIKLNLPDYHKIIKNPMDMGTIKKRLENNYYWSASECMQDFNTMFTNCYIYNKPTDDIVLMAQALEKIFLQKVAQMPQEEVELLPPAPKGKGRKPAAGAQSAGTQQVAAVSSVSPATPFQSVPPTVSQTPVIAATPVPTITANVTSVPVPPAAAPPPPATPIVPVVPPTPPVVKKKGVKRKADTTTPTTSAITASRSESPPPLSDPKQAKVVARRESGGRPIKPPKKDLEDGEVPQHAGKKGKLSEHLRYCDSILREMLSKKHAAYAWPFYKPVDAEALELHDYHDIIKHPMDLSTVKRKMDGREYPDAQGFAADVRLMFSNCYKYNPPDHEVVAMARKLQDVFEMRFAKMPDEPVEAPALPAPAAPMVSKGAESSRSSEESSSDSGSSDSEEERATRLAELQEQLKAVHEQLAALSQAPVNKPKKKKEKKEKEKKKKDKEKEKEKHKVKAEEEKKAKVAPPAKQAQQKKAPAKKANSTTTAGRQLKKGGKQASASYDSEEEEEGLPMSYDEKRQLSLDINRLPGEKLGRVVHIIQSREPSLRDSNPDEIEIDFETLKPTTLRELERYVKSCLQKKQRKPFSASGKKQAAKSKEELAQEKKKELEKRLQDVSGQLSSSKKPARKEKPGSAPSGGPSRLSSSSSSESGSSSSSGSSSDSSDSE
Chain of SWI/SNF-related matrix-associated actin-dependent regulator of chromatin subfamily A member 2 (Homo sapiens) (P51531 whole entry): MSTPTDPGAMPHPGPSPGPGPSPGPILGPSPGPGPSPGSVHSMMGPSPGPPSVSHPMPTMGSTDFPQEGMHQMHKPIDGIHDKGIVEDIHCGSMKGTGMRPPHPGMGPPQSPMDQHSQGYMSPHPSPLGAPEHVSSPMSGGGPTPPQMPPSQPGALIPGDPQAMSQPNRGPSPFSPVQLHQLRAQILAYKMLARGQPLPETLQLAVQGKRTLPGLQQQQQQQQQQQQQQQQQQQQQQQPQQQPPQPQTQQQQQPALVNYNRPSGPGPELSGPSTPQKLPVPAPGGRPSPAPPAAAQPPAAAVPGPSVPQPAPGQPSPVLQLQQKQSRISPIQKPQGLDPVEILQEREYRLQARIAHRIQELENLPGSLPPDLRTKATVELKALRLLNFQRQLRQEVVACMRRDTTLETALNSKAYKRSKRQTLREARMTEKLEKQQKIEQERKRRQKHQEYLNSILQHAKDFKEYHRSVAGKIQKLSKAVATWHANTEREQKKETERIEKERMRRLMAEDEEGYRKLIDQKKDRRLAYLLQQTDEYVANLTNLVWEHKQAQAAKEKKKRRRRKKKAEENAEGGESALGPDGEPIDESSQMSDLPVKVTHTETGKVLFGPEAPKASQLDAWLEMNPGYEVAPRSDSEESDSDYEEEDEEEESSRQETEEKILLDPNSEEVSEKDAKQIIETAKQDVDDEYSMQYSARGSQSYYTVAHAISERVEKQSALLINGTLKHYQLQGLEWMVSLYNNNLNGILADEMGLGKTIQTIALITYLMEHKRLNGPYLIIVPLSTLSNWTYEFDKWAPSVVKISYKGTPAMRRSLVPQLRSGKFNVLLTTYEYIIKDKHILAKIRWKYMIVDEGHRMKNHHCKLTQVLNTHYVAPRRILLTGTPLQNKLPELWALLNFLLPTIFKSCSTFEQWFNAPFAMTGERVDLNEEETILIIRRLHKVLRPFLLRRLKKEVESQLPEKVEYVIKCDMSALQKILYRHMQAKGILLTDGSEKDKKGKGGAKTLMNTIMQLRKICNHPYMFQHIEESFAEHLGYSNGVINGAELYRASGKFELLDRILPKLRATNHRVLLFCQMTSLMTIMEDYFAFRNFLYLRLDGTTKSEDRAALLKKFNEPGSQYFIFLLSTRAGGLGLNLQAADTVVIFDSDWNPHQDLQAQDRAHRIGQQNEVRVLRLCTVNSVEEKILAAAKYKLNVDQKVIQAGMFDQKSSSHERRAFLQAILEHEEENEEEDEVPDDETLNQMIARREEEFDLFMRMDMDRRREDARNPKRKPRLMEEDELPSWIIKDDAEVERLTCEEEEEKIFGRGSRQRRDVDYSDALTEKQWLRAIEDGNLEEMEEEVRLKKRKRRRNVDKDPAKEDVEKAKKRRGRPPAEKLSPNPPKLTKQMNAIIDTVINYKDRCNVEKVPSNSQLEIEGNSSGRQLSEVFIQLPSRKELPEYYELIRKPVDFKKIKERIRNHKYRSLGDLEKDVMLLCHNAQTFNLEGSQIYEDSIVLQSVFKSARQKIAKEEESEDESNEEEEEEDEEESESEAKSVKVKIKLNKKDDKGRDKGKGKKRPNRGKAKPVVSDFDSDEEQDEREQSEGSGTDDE
Chain of Transcription initiation factor TFIID subunit 1 (Homo sapiens) (P21675 whole entry, the tested form may be a part): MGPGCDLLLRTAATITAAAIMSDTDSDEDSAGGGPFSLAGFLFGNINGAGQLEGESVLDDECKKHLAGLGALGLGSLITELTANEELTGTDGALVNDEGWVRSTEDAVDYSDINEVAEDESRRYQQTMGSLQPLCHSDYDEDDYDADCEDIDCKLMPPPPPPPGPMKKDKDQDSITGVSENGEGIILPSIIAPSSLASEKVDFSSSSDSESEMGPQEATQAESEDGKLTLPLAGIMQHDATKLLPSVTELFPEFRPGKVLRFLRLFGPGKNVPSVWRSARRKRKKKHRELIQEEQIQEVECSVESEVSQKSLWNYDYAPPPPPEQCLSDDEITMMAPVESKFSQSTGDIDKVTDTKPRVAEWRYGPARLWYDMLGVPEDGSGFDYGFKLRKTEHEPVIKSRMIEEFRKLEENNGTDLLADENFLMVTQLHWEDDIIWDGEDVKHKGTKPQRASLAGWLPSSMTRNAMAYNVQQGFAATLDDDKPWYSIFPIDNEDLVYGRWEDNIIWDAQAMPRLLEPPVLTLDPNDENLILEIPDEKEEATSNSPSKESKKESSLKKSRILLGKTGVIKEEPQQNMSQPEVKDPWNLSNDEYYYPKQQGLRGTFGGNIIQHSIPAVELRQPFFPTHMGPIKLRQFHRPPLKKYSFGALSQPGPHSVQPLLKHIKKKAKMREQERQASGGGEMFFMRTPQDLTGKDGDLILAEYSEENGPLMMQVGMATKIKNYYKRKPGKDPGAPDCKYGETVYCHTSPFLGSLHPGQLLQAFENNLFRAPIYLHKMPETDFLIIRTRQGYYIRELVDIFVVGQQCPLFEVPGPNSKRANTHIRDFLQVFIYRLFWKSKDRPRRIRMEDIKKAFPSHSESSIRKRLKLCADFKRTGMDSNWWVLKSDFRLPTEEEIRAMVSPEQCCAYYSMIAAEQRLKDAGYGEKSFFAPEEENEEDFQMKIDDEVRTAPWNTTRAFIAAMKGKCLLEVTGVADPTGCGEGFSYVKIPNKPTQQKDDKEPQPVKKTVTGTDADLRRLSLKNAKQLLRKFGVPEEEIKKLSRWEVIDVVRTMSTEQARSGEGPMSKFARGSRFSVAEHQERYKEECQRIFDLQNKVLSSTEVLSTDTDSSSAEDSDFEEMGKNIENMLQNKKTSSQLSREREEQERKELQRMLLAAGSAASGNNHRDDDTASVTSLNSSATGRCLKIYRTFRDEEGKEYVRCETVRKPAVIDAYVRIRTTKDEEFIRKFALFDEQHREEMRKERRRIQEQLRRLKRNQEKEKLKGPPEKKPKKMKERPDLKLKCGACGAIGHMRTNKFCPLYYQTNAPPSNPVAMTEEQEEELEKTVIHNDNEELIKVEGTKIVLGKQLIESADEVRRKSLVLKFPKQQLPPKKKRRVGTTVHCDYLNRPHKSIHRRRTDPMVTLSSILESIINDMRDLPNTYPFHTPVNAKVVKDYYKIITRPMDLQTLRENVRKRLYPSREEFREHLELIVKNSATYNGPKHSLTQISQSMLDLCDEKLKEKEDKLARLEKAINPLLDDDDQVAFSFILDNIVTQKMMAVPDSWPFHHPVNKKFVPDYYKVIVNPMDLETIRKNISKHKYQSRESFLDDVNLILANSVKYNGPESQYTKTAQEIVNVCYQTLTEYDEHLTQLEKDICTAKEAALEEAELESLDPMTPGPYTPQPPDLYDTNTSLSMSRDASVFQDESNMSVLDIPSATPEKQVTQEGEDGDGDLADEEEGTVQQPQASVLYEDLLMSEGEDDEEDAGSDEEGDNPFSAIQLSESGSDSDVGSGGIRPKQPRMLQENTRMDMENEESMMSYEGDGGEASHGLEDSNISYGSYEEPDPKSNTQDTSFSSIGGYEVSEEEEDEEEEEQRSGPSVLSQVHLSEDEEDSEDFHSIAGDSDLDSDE

| ΔTm [1] [°C] | Ratio IC50 [2] | ΔTm [3] [°C] | ΔTm [4] [°C] | ΔTm [5] [°C] | ΔTm [6] [°C] | ΔTm [7] [°C] | ΔTm [8] [°C] | ΔTm [9] [°C] | ΔTm [10] [°C] | ΔTm [11] [°C] | ΔTm [12] [°C] | ΔTm [13] [°C] | SMILES |
| --- | --- | --- | --- | --- | --- | --- | --- | --- | --- | --- | --- | --- | --- |
| -0.5 | 294 | 12 | 11.2 | 3 | 3 | -1 | -1.25 | -1 | 14.5 | 0.5 | 0.75 | -2 | Cc1cc(F)cc(C)c1Oc1ccc(C(C)(C)O)cc1-c1cn(C)c(=O)c2cc(-c3cnc(C4CCC4)[nH]3)oc12 |
| -0.75 |  | 11.5 | 10.2 | 2 | 2 | 0 | -1 | -1 | 13.2 | 1 | 1 | -2 | Cc1cc(F)cc(C)c1Oc1ccc(C(C)(C)O)cc1-c1cn(C)c(=O)c2cc(-c3cnc(C4CCCC4)[nH]3)oc12 |
| -2 | 275 | 13 | 11.2 | 3.5 | 2.75 | -0.5 | -1.5 | -1.25 | 15 | 0.75 | -0.25 | -2 | Cc1cc(F)cc(C)c1Oc1ccc(C(C)(C)O)cc1-c1cn(C)c(=O)c2cc(-c3cnc(C4CC4)[nH]3)oc12 |
| -1.25 | 226 | 9 | 8 | 1 | 2 | 0.25 | -1 | -1.25 | 11 | 1 | 1 | -2 | Cc1cc(F)cc(C)c1Oc1ccc(C(C)(C)O)cc1-c1cn(C)c(=O)c2cc(-c3cnc(C4CCCCC4)[nH]3)oc12 |

Reference: ChEMBL document CHEMBL5154816, “Structure-Based Discovery and Optimization of Furo[3,2-c]pyridin-4(5H)-one Derivatives as Potent and Second Bromodomain (BD2)-Selective Bromo and Extra Terminal Domain (BET) Inhibitors” (J Med Chem, 2022)
